# Source: article PMC10299128, “The Parallel Structure–Activity Relationship Screening of Three Compounds Identifies the Common Agonist Pharmacophore of Pyrrolidine Bis-Cyclic Guanidine Melanocortin-3 Receptor (MC3R) Small-Molecule Ligands” (International Journal of Molecular Sciences, 2023)
# Where “and” joins values, the source holds several entries; their conditions need not be identical. Identical values can stand only once. Like-named read-outs stand apart in the source and are kept apart here.
# Legend:
# mMC3R [1] = molecular target: T1, mMC3R (Mus musculus, UniProt P33033); parameters: expressed in transfected cells; method as in PMID 33886285; conditions: β-galactosidase reporter gene assay; read-out: mMC3R agonist EC50 (previously reported); cited from earlier work
# mMC4R [2] = molecular target: T2, mMC4R (Mus musculus, UniProt P56450); conditions: antagonist, Schild analysis with agonist NDP-MSH; mean ± SEM
# Method: (§1) Pyrrolidine bis-cyclic guanidine compounds were assessed for biological activity using the AlphaScreen cAMP kit with HEK293 cells stably expressing the mMC1R, mMC3R, mMC4R, or mMC5R, as previously described [37, 38, 39]. […] Compounds were assayed for agonist activity in a 7-point dose–response curve (10^−3 to 10^−9 M). […] The purified compounds were dissolved in DMSO at a stock concentration of 10^−1 M and assayed using HEK293 cells stably expressing the mouse MC1R, MC3R, MC4R, and MC5R using the AlphaScreen cAMP bioassay (PerkinElmer, Waltham, MA, USA) according to the manufacturer’s instructions and as previously described [37, 38, 39].
# (§2) Briefly, cells 70−90% confluent were dislodged with Versene (Gibco, Waltham, MA, USA) at 37 °C and 10,000 cells/well were plated in a 384-well plate (Optiplate, PerkinElmer, Waltham, MA, USA) with 10 μL of freshly prepared stimulation buffer (1× HBSS, 5 mM HEPES, 0.5 mM IBMX, 0.1% BSA, pH = 7.4) with 0.5 μg of anti-cAMP acceptor beads per well. The cells were stimulated with the addition of 5 μL of stimulation buffer containing compound or forskolin (10^−4 M) and incubated in the dark at room temperature for 2 h. Following stimulation, streptavidin donor beads (0.5 μg) and biotinylated cAMP (0.62 μmol) were added to the wells in a green light environment with 10 μL of lysis buffer (5 mM HEPES, 0.3% Tween-20, 0.1% BSA, pH = 7.4) and the plates were incubated in the dark at room temperature for an additional 2 h. Plates were read on a Enspire (PerkinElmer, Waltham, MA, USA) Alpha plate reader using a pre-normalized assay protocol (set by the manufacturer).
# mMC4R [3] = molecular target: T2, mMC4R; parameters: expressed in transfected cells; method as in PMID 33886285; conditions: cited from earlier work; for mMC4R partial stimulation, % activation (previously reported): at 10 µM
# mMC1R [4] = molecular target: T3, mMC1R (Mus musculus, UniProt Q01727); experiment: AlphaScreen cAMP agonist assay, HEK293 cells stably expressing mMC1R; conditions: for mMC1R percent maximal stimulatory response (compared to NDP-MSH): at 1 mM, not enough stimulation to determine EC50
# Method: as §1, §2
# mMC1R [5] = molecular target: T3, mMC1R; parameters: expressed in transfected cells; method as in PMID 33886285; conditions: cited from earlier work
# mMC5R [6] = molecular target: T4, mMC5R (Mus musculus, UniProt P41149); experiment: AlphaScreen cAMP agonist assay, HEK293 cells stably expressing mMC5R
# Method: as §1, §2
# mMC3R [7] = molecular target: T1, mMC3R; experiment: AlphaScreen cAMP agonist assay, HEK293 cells stably expressing mMC3R; conditions: for mMC3R agonist efficacy (in words): relative to NDP-MSH, full = >90% receptor activation; for mMC3R partial agonist efficacy bin: sigmoidal curve, efficacy <90% of NDP-MSH; for mMC3R percent maximal stimulatory response (compared to NDP-MSH): at 1 mM, not enough stimulation to determine EC50
# Method: as §1, §2
# mMC4R [8] = molecular target: T2, mMC4R; parameters: expressed in transfected cells; method as in PMID 33886285; conditions: with agonist MTII; cited from earlier work
# mMC4R [9] = molecular target: T2, mMC4R; experiment: cell-based
# Method: as §1, §2
# mMC5R [10] = molecular target: T4, mMC5R; parameters: expressed in transfected cells; method as in PMID 33886285; conditions: β-galactosidase reporter gene assay; read-out: mMC5R agonist EC50 (previously reported); cited from earlier work
# mMC4R [11] = molecular target: T2, mMC4R; experiment: AlphaScreen cAMP agonist assay, HEK293 cells stably expressing mMC4R; conditions: for mMC4R partial agonist efficacy bin: sigmoidal curve, efficacy <90% of NDP-MSH; for mMC4R percent maximal stimulatory response (compared to NDP-MSH): at 1 mM, not enough stimulation to determine EC50
# Method: as §1, §2
# MC5R = test system: MC5R; parameters: method as in PMID 21215742; conditions: read-out: MC5R antagonist IC50; cited from earlier work
# MC1R = test system: MC1R; parameters: method as in PMID 21215742; conditions: read-out: MC1R antagonist IC50; cited from earlier work
# [12] = molecular target: mouse melanocortin-5 receptor (mouse) (UniProt P41149)
# [13] = molecular target: mouse melanocortin-3 receptor (mouse) (UniProt P33033)
# [14] = molecular target: mouse melanocortin-1 receptor (mouse) (UniProt Q01727)
# Sequence of mouse melanocortin-1 receptor (mouse) (Q01727 whole entry): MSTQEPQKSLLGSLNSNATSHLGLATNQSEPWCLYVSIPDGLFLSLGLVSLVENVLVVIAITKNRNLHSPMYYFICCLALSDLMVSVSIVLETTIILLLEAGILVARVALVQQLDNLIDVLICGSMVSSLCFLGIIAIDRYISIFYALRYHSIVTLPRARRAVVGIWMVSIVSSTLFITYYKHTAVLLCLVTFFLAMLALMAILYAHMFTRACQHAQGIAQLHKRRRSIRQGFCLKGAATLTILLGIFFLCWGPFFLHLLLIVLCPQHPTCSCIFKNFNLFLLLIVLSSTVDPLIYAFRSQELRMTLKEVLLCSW
# T2 sequence (P56450 whole entry): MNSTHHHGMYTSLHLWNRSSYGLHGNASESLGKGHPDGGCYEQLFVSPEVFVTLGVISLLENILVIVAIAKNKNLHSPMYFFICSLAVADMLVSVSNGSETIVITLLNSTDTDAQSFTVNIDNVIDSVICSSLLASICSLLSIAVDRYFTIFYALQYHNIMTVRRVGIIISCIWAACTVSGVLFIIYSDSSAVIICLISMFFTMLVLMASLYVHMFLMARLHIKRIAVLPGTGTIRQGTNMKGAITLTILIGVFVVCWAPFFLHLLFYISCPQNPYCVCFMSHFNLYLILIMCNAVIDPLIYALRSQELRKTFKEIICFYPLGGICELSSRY
# T3 sequence (Q01727 whole entry): as the sequence (Q01727 whole entry) above
# T4 sequence (P41149 whole entry): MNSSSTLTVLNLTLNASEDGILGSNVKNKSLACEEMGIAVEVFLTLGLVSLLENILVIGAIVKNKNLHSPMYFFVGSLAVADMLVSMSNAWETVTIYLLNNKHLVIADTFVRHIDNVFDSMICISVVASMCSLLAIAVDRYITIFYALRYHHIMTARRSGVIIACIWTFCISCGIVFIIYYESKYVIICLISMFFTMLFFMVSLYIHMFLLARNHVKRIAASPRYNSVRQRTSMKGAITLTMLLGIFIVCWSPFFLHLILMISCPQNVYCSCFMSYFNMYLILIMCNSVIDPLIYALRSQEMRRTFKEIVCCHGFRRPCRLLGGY
# T1 sequence (P33033 whole entry): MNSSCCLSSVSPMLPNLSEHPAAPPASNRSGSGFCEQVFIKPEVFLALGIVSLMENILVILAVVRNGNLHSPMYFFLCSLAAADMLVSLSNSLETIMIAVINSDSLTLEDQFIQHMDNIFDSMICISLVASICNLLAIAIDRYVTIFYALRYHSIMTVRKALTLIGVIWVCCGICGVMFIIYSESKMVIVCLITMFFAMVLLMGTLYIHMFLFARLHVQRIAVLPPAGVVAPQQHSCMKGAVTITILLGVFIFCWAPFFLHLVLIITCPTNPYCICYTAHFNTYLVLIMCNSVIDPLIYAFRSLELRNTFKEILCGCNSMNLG
# Sequence of mouse melanocortin-5 receptor (mouse) (P41149 whole entry): as the sequence (P41149 whole entry) above
# Sequence of mouse melanocortin-3 receptor (mouse) (P33033 whole entry): as the sequence (P33033 whole entry) above
Molecule,mMC4R pA2 (mMC4R [2]),EC50 (mMC1R [4]) [µM],EC50 (mMC5R [6]) [µM],EC50 (mMC3R [7]) [µM],Kb (mMC4R [9]) [µM],EC50 (mMC4R [11]) [µM],mMC4R partial agonist efficacy bin (mMC4R [11]),mMC3R agonist efficacy (in words) (mMC3R [7]),mMC4R percent maximal stimulatory response (compared to NDP-MSH) (mMC4R [11]) [% @ 1 mM],also measured
CC(C)CC1CNC(=N)N1CC1CCCN1CC(Cc1ccccc1)N1CC(C(C)O)N(CC2CCC(C(C)(C)C)CC2)C1=N (stereo not drawn) [Compound 2718.001],6.0,0.32 ± 0.03,0.26 ± 0.03,0.27 ± 0.02,1,,,,,"EC50 (mMC3R [1]): 0.31 µM; mMC4R partial stimulation, % activation (previously reported) (mMC4R [3]): 10–50%; mMC1R partial stimulation, % efficacy (previously reported) (mMC1R [5]; at 10 µM): 58%; mMC4R antagonist pA2 (previously reported) (mMC4R [8]): 7.0; EC50 (mMC5R [10]): 0.53 µM"
CC(C)CC1CNC(=N)N1CC1CCCN1CC(CC1CCCCC1)N1CC(C(C)O)N(CC2CCC(C(C)(C)C)CC2)C1=N (stereo not drawn) [Compound 2718.002],6.2,0.27 ± 0.02,0.29 ± 0.01,0.24 ± 0.008,0.631,1.2 ± 0.3,A (A (20–50% receptor activation)),,,"EC50 (mMC3R [1]): 0.21 µM; EC50 (mMC4R [3]; partial agonist, read-out: mMC4R partial agonist EC50 (previously reported)): 0.27 µM; mMC4R partial agonist efficacy, % MTII signal (previously reported) (mMC4R [3]; relative to MTII): 45%; EC50 (mMC1R [5]; β-galactosidase reporter gene assay, read-out: mMC1R agonist EC50 (previously reported)): 0.3 µM; mMC4R antagonist pA2 (previously reported) (mMC4R [8]): 5.8; EC50 (mMC5R [10]): 0.14 µM"
CCCC1CN(C(CC2CCCCC2)CN2CCCC2CN2C(=N)NCC2C(C)C)C(=N)N1CC1CCC(C(C)(C)C)CC1 (stereo not drawn) [Compound 2718.003],5.9,0.64 ± 0.03,1.2 ± 0.2,2 ± 0.3,1.26,2.5 ± 0.6,A (A (20–50% receptor activation)),,,"EC50 (mMC3R [1]): 0.35 µM; mMC4R partial stimulation, % activation (previously reported) (mMC4R [3]): 50%; mMC1R partial stimulation (previously reported) (mMC1R [5]; at 100 µM): 50–90%; fold decreased mMC3R potency between the previous reported values and the present study (mMC3R [7]; AlphaScreen (present) vs previously reported value [29]): 6 fold; mMC4R antagonist pA2 (previously reported) (mMC4R [8]): 5.8; EC50 (mMC5R [10]): 0.54 µM"
CC(C)C[C@@H]1CNC(=N)N1C[C@@H]1CCCN1C[C@@H](Cc1ccccc1)N1CCN(CC2CCC(C(C)(C)C)CC2)C1=N (stereo partly drawn) [Compound 2718.022],6.1,0.4 ± 0.04,0.32 ± 0.01,0.38 ± 0.07,0.794,,,full agonist efficacy,,
C[C@H](O)[C@@H]1CN([C@H](Cc2ccccc2)CN2CCC[C@H]2CN2CCNC2=N)C(=N)N1CC1CCC(C(C)(C)C)CC1 (stereo partly drawn) [Compound 2718.024],6.3,0.39 ± 0.05,0.48 ± 0.05,3 ± 0.7,0.501,,,full agonist efficacy,50,fold decreased mMC3R agonist potency (mMC3R [7]; relative to 2718.001): 11 fold and 10 fold
CC(C)C[C@@H]1CNC(=N)N1C[C@@H]1CCCN1C[C@@H](CC1CCCCC1)N1CCN(CC2CCC(C(C)(C)C)CC2)C1=N (stereo partly drawn) [Compound 2718.025],6.1,0.51 ± 0.09,0.6 ± 0.1,1 ± 0.3,0.794,,,full agonist efficacy,60,fold decreased mMC3R agonist potency (mMC3R [7]; relative to 2718.002): 4 fold
C[C@H](O)[C@@H]1CN([C@H](CC2CCCCC2)CN2CCC[C@H]2CN2CCNC2=N)C(=N)N1CC1CCC(C(C)(C)C)CC1 (stereo partly drawn) [Compound 2718.026],6.2,0.46 ± 0.03,0.3 ± 0.01,2.6 ± 0.2,0.631,1.8 ± 0.5,A (A (20–50% receptor activation)),full agonist efficacy,,fold decreased mMC3R agonist potency (mMC3R [7]; relative to 2718.002): 11 fold and 10 fold
CC(C)[C@@H]1CNC(=N)N1C[C@@H]1CCCN1C[C@@H](CC1CCCCC1)N1CCN(CC2CCC(C(C)(C)C)CC2)C1=N (stereo partly drawn) [Compound 2718.027],,0.34 ± 0.03,0.51 ± 0.07,2.1 ± 0.2,0.631,,,full agonist efficacy,45,
CCC[C@@H]1CN([C@H](CC2CCCCC2)CN2CCC[C@H]2CN2CCNC2=N)C(=N)N1CC1CCC(C(C)(C)C)CC1 (stereo partly drawn) [Compound 2718.029],5.8,1.1 ± 0.3,1.3 ± 0.1,3.3 ± 0.1,1.58,2.9 ± 0.4,B (B (51–90% receptor activation)),full agonist efficacy,,
CC(C)C[C@@H]1CNC(=N)N1C[C@@H]1CCCN1C[C@H](CC1CCCCC1)N1C[C@@H]([C@H](C)O)N(CC2CCC(C(C)(C)C)CC2)C1=N (stereo partly drawn) [Compound 2718.046],,1.8 ± 0.2,5 ± 1,9 ± 1,,,,,55,fold decreased mMC1R agonist potency (mMC1R [4]; relative to 2718.002): 7 fold; fold decreased mMC5R agonist potency (mMC5R [6]; relative to 2718.002): 17 fold; mMC3R partial agonist efficacy bin (mMC3R [7]): B (B (51–90% receptor activation))
CCC[C@H]1CN([C@H](CC2CCCCC2)CN2CCC[C@H]2CN2C(=N)NC[C@H]2C(C)C)C(=N)N1CC1CCC(C(C)(C)C)CC1 (stereo partly drawn) [Compound 2718.050],,3.2 ± 0.5,4.2 ± 0.5,27,,39,B (B (51–90% receptor activation)),,,fold decreased mMC1R agonist potency (mMC1R [4]; relative to 2718.003): 5 fold; mMC3R partial agonist efficacy bin (mMC3R [7]): B (B (51–90% receptor activation))
CCC[C@@H]1CN([C@@H](CC2CCCCC2)CN2CCC[C@H]2CN2C(=N)NC[C@H]2C(C)C)C(=N)N1CC1CCC(C(C)(C)C)CC1 (stereo partly drawn) [Compound 2718.051],,6 ± 2,11,,,50,B (B (51–90% receptor activation)),,,fold decreased mMC1R agonist potency (mMC1R [4]; relative to 2718.003): 9 fold; fold decreased mMC5R agonist potency (mMC5R [6]; relative to 2718.003): 9 fold; mMC3R percent maximal stimulatory response (compared to NDP-MSH) (mMC3R [7]): 65% @ 1 mM
CCC[C@@H]1CN([C@H](CC2CCCCC2)CN2CCC[C@@H]2CN2C(=N)NC[C@H]2C(C)C)C(=N)N1CC1CCC(C(C)(C)C)CC1 (stereo partly drawn) [Compound 2718.052],,2.5 ± 0.3,2.92 ± 0.07,2.6 ± 0.1,,12,B (B (51–90% receptor activation)),,,fold decreased mMC1R agonist potency (mMC1R [4]; relative to 2718.003): 4 fold; mMC3R partial agonist efficacy bin (mMC3R [7]): B (B (51–90% receptor activation))
CCC[C@@H]1CN([C@H](CC2CCCCC2)CN2CCC[C@H]2CN2C(=N)NC[C@@H]2C(C)C)C(=N)N1CC1CCC(C(C)(C)C)CC1 (stereo partly drawn) [Compound 2718.053],,1 ± 0.3,2.4 ± 0.3,2.4 ± 0.2,1.26,,,full agonist efficacy,60,
CCC[C@H]1CN([C@@H](CC2CCCCC2)CN2CCC[C@@H]2CN2C(=N)NC[C@@H]2C(C)C)C(=N)N1CC1CCC(C(C)(C)C)CC1 (stereo partly drawn) [Compound 2718.054],,,3.5 ± 0.3,,,,,,60,mMC1R percent maximal stimulatory response (compared to NDP-MSH) (mMC1R [4]): 65% @ 1 mM; mMC3R percent maximal stimulatory response (compared to NDP-MSH) (mMC3R [7]): 55% @ 1 mM
CCCCC(CN1CCCC1CN1C(=N)NCC1CC(C)C)N1CC(C(C)O)N(CC2CCC(C(C)(C)C)CC2)C1=N (stereo not drawn) [Compound 2718.060],,2.2 ± 0.7,1.1 ± 0.3,2.2 ± 0.2,,,,,45,"mMC1R partial agonist efficacy bin (mMC1R [4]; sigmoidal curve, efficacy <90% of NDP-MSH): B (B (51–90% receptor activation)); fold decreased mMC5R agonist potency (mMC5R [6]; relative to 2718.002): 4 fold; mMC3R partial agonist efficacy bin (mMC3R [7]): B (B (51–90% receptor activation))"
CC(C)CC1CNC(=N)N1CC1CCCN1CC(C)N1CC(C(C)O)N(CC2CCC(C(C)(C)C)CC2)C1=N (stereo not drawn) [Compound 2718.061],,,,,,> 1000,,,,"mMC1R percent maximal stimulatory response (compared to NDP-MSH) (mMC1R [4]): 65% @ 1 mM; mMC5R percent maximal stimulatory response (compared to NDP-MSH) (mMC5R [6]; at 1 mM, not enough stimulation to determine EC50): 65% @ 1 mM; mMC3R percent maximal stimulatory response (compared to NDP-MSH) (mMC3R [7]): 20% @ 1 mM"
COc1ccccc1-c1nc(=Nc2ccccc2)sn1-c1ccccc1OC [JNJ-10229570],,,,,,,,,,IC50 (MC5R): 0.2 to 0.3 µM; IC50 (MC1R): 0.2 to 0.3 µM
NDP-MSH (peptide),,,,,,,,,,"EC50 of agonist activity, AlphaScreen cAMP assay, HEK293 cells stably expressing mMC5R [12]: 0.0001 µM; EC50 of agonist activity, AlphaScreen cAMP assay, HEK293 cells stably expressing mMC3R [13]: 0.069 nM; EC50 of agonist activity, AlphaScreen cAMP assay, HEK293 cells stably expressing mMC1R [14]: 0.055 nM"
